Laboratory results from publication PMC9317966, “Structure-function analysis of the AMPK activator SC4 and identification of a potent pan AMPK activator” (Biochemical Journal, 2022).
Blank lines part the entries; values can stand above or below the molecule they belong to.

Key:
[1] = biological target: T1, human GST-AMPK α2β2γ1 (Homo sapiens, UniProt O43741+P54646); assay: Radiolabel SAMS kinase assay, GST-AMPK from HEK293T/17 cells immobilised on glutathione-Sepharose; format: biochemical
T1 construct: triply transfected with full-length AMPK α1 or α2 (NH2-terminal GST fusion, pDEST27 vector); full-length AMPK α1 or α2 (NH2-terminal GST fusion, pDEST27 vector), β1 or β2 (COOH-terminal FLAG fusion, pcDNA3.1 vector); FLAG (C); made in house; host or cells: HEK293T/17 cells, transient triple transfection

[2] = biological target: T2, human GST-AMPK α1β2γ1 (Homo sapiens, UniProt O43741+Q13131); assay: as above; format: biochemical
T2 construct: triply transfected with full-length AMPK α1 or α2 (NH2-terminal GST fusion, pDEST27 vector); full-length AMPK α1 or α2 (NH2-terminal GST fusion, pDEST27 vector), β1 or β2 (COOH-terminal FLAG fusion, pcDNA3.1 vector); FLAG (C); made in house; host or cells: HEK293T/17 cells, transient triple transfection

[3] = biological target: T3, human GST-AMPK α1β1γ1 (Homo sapiens, UniProt Q13131+Q9Y478); assay: as above; format: biochemical; conditions: for Max. fold activation: immobilised α1β1γ1; for EC50: immobilised α1β1γ1, 0–30 µM activator
T3 construct: triply transfected with full-length AMPK α1 or α2 (NH2-terminal GST fusion, pDEST27 vector); full-length AMPK α1 or α2 (NH2-terminal GST fusion, pDEST27 vector), β1 or β2 (COOH-terminal FLAG fusion, pcDNA3.1 vector); FLAG (C); made in house; host or cells: HEK293T/17 cells, transient triple transfection
Excerpt: (§1) We generated a series of compounds to investigate whether modification of the SC4 2-hydroxybiphenyl LHS fragment affects isoform selectivity, some of which (MSG008-MSG011) are presented in Table 1. We also synthesised compound MSG012 (example I-3-54 [32]), which was reported to activate α2β2γ1 with ∼100-fold greater potency compared with α1β1γ1. MSG012 differs from SC4 by substitution of the 2-hydroxyphenyl LHS fragment with 3-cyclohexen-4-yl-1-carboxylic acid, and 2-methylbenzoic acid RHS fragment with 1-hydroxy-N,N-dimethylcyclohexan-4-yl-1-carboxamide. Our initial screen involved measuring the activity of recombinant human GST-AMPK complexes expressed in HEK293T/17 cells and immobilised on glutathione-Sepharose (Supplementary Figure S1). Enzyme activity was measured by radiolabelling the synthetic SAMS peptide substrate in the absence or presence of 1 µM compound. Consistent with our previous characterisation, SC4 activated α1β1γ1, α2β1γ1 and α2β2γ1 >2.3-fold, and weakly activated α1β2γ1 1.3-fold (Figure 1A). […] The γ isoform had little influence on AMPK activation by MSG011 as most γ2 and γ3 complexes were activated >2.2-fold at 1 µM, with α1β2γ2 being the only exception (1.6-fold activation). […] Accordingly, MSG010, MSG011 and MSG012 can be classified as pan AMPK activators.
(§2) Adherent HEK293T/17 cells at ∼50% confluency were triply transfected with full-length AMPK α1 or α2 (NH2-terminal GST fusion, pDEST27 vector), β1 or β2 (COOH-terminal FLAG fusion, pcDNA3.1 vector), and γ1, γ2 or γ3 (NH2-terminal HA fusion, pMT2 vector) in the presence of FuGENE HD transfection reagent (Promega) as per the manufacturers protocol. Cells were harvested 48 hours post-transfection by first gently washing in ice cold phosphate buffered saline (PBS; Sigma–Aldrich), then scraping in ice cold lysis buffer (50 mM TRIS pH 7.5, 150 mM NaCl, 10% (v/v) glycerol, 50 mM NaF, 5 mM sodium pyrophosphate, 1% (v/v) Triton X-100, cOmplete protease inhibitor cocktail). Lysates were clarified by centrifugation (16 000g, 3 min, 4°C), flash frozen in liquid N2 and stored at −80°C until analysis. For radioactive kinase assays, AMPK was immobilised on glutathione Sepharose 4B resin (GE Healthcare) by incubation with lysates for 1.5 h at 4°C. Following centrifugation (1000g, 3 min, 4°C), the resin was washed twice in purification buffer (50 mM HEPES pH 7.4, 150 mM NaCl, 10% (v/v) glycerol, 0.02% (v/v) Tween-20), once in 50 mM HEPES pH 7.4 with 0.02% (v/v) Tween-20, then resuspended to a 50% slurry with 50 mM HEPES pH 7.4 and 10 µl added to the activity assays. For in solution kinase assays, α1β1γ1 AMPK was eluted from glutathione-Sepharose by incubating with purification buffer supplemented with 40 mM reduced glutathione (Sigma–Aldrich).
(§3) AMPK activity was determined by phosphorylation of the SAMS peptide (Purar Chemicals, sequence: NH2-HMRSAMSGLHLVKRR-COOH) in a 25 µl reaction volume containing 100 µM SAMS peptide, 5 mM MgCl2, 200 µM ATP, [γ-^32P]-ATP (PerkinElmer) and assay buffer (50 mM HEPES pH 7.4, 1 mM DTT and 0.02% (v/v) Tween-20) and purified AMPK. Phosphotransferase activity was conducted at 30°C for 10 min and reactions were quenched by spotting 15 µl onto phosphocellulose ion-exchange chromatography paper (made in-house), followed by repeated washes in 1% H3PO4 (Merck Millipore). Ultima Gold liquid scintillation fluid (5 ml; PerkinElmer) was added to vials containing dried phosphocellulose papers, and the level of ^32P-transfer to the SAMS peptide was determined using a Tri-Carb 2900TR liquid scintillation counter (PerkinElmer).

[4] = tested on: α2β2γ1 AMPK; design: method as in earlier work; conditions: reported for example I-3-54; cited from earlier work
[5] = biological target: T4, human GST-AMPK α2β1γ1 (Homo sapiens, UniProt P54646+Q9Y478); assay: Radiolabel SAMS kinase assay, GST-AMPK from HEK293T/17 cells immobilised on glutathione-Sepharose; format: biochemical
T4 construct: triply transfected with full-length AMPK α1 or α2 (NH2-terminal GST fusion, pDEST27 vector); full-length AMPK α1 or α2 (NH2-terminal GST fusion, pDEST27 vector), β1 or β2 (COOH-terminal FLAG fusion, pcDNA3.1 vector); FLAG (C); made in house; host or cells: HEK293T/17 cells, transient triple transfection

[6] = biological target: γ1AMPK complexes; assay: Radiolabel kinase assay, immobilised GST-tagged γ1AMPK (stated across γ1 complexes); format: biochemical, human
Excerpt: We directly compared in vitro potencies of pan activators by performing radiolabel kinase assays with γ1AMPK complexes. Initially, we used GST-tagged γ1AMPK expressed in HEK293T/17 cells and immobilised on glutathione-Sepharose (Figure 2 and Table 2). […] These assays used AMPK purified from Sf9 insect cells or E. coli that was pre-treated with CaMKK2. […] However, relative to immobilised GST-α2β1γ1 from HEK293T/17 cells, His-tagged and myristoylated α2β1γ1 AMPK (expressed in E. coli, CaMKK2-treated and assayed in solution) was at least 10-fold more sensitive to activation by both MK-8722 and MSG011 (Supplementary Figure S3B), indicating the GST-affinity tag or CaMKK2 treatment may exert some influence on sensitivity to these activators.
as §2
as §3, with “Phosphotransferase activity was conducted at 30°C for 10 min and reactions were quenched by spotting 15 µl onto phosphocellulose ion-exchange chromatography paper (made in-house), followed by repeated washes in 1% H3PO4 (Merck Millipore).” left out

[7] = tested on: AMPK β1-Ser108 exchanged for Ala; design: method as in PMID 24352254, PMID 29657085; conditions: cited from earlier work
[8] = tested on: α1β2γ1 AMPK; design: method as in PMID 29657085; conditions: α1β2γ1, in solution, mammalian cell-expressed AMPK, cited from earlier work
[9] = biological target: T2, human GST-AMPK α1β2γ1; assay: Radiolabel SAMS kinase assay, GST-AMPK from HEK293T/17 cells immobilised on glutathione-Sepharose; format: biochemical; conditions: 1 µM compound
Excerpt: as §1, §2, §3

[10] = biological target: T1, human GST-AMPK α2β2γ1; assay: as above; format: biochemical; conditions: 1 µM compound
Excerpt: as §1, §2, §3

[11] = biological target: T4, human GST-AMPK α2β1γ1; assay: as above; format: biochemical; conditions: 1 µM compound
Excerpt: as §1, §2, §3

[12] = tested on: α2β2γ1 AMPK; design: method as in PMID 29657085; conditions: α2β2γ1, in solution, mammalian cell-expressed AMPK; cited from earlier work
[13] = tested on: α1β1γ1 AMPK; design: method as in PMID 29657085; conditions: α1β1γ1, in solution, mammalian cell-expressed AMPK; cited from earlier work

T2 sequence (Q13131 whole entry, the tested form may be a part): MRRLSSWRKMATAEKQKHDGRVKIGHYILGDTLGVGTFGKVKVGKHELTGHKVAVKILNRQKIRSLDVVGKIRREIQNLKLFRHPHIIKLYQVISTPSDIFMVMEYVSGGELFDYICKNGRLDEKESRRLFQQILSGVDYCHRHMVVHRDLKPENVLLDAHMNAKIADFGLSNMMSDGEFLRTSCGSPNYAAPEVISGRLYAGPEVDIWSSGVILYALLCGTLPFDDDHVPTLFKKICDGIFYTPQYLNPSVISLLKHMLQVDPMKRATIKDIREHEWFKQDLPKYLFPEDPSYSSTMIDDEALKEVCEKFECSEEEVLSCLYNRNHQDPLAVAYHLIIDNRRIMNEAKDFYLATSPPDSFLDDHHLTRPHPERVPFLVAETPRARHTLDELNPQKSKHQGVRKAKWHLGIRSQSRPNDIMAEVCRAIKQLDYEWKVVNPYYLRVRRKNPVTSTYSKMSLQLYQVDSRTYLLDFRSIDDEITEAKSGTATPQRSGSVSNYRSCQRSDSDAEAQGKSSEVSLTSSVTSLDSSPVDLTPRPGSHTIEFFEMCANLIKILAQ
T2 sequence (O43741 whole entry, the tested form may be a part): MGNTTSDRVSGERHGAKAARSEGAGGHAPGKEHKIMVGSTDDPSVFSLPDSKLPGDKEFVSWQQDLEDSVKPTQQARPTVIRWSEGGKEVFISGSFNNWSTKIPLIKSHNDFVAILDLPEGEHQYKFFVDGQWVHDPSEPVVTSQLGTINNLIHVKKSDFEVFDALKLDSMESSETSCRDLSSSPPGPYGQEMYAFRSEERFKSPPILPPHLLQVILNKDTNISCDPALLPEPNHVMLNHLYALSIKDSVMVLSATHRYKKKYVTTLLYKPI
T2 sequence (P54619 whole entry partner, the tested form may be a part): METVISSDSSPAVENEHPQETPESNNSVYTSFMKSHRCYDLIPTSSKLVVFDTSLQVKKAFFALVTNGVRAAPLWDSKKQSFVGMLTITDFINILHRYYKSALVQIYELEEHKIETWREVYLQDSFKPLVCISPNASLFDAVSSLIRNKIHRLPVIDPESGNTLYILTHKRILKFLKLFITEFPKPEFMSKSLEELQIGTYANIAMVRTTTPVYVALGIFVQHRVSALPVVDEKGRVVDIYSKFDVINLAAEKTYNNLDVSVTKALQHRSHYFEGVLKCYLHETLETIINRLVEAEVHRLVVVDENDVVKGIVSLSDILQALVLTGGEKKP
T3 sequence (Q13131 whole entry, the tested form may be a part): as the sequence (Q13131 whole entry, the tested form may be a part) above
T3 sequence (Q9Y478 whole entry, the tested form may be a part): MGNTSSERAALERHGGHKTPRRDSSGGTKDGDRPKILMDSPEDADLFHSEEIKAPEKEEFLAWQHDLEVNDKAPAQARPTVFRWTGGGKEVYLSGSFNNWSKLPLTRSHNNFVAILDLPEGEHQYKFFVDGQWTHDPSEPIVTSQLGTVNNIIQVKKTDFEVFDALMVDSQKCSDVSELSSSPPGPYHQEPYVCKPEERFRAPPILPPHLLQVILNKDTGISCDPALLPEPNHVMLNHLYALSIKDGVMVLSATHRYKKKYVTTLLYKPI
T3 sequence (P54619 whole entry partner, the tested form may be a part): as the sequence (P54619 whole entry partner, the tested form may be a part) above
T1 sequence (P54646 whole entry, the tested form may be a part): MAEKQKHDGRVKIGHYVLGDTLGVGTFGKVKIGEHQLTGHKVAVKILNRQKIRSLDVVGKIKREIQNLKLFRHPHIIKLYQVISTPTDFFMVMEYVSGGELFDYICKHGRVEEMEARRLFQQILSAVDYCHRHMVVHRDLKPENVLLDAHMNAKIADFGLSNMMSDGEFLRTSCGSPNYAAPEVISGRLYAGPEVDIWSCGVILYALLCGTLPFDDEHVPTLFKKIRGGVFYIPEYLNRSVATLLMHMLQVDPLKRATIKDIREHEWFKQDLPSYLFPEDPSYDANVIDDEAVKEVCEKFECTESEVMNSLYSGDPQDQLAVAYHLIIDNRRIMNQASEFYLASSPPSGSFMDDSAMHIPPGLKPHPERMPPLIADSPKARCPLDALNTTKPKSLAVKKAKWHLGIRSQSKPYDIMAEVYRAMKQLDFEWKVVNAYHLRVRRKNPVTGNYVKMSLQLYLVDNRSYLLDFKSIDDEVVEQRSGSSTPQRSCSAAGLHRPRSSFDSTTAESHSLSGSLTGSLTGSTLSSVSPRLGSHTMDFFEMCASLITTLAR
T1 sequence (O43741 whole entry, the tested form may be a part): as the sequence (O43741 whole entry, the tested form may be a part) above
T1 sequence (P54619 whole entry partner, the tested form may be a part): as the sequence (P54619 whole entry partner, the tested form may be a part) above
T4 sequence (P54646 whole entry, the tested form may be a part): as the sequence (P54646 whole entry, the tested form may be a part) above
T4 sequence (Q9Y478 whole entry, the tested form may be a part): as the sequence (Q9Y478 whole entry, the tested form may be a part) above
T4 sequence (P54619 whole entry partner, the tested form may be a part): as the sequence (P54619 whole entry partner, the tested form may be a part) above

Max. fold activation ([1]; immobilised α2β2γ1): 2.9 fold
EC50 ([1]; immobilised α2β2γ1, 0–30 µM activator): 328 nM
Max. fold activation ([2]; immobilised α1β2γ1): 1.9 fold
EC50 ([2]; immobilised α1β2γ1, 0–30 µM activator): 232 nM
Max. fold activation [3]: 1.9 fold
EC50 [3]: 103 nM
Max. fold activation ([5]; immobilised α2β1γ1): 6.1 fold
EC50 ([5]; immobilised α2β1γ1, 0–30 µM activator): 332 nM
SMILES: CN(C)C(=O)C1(O)CCC(Oc2nc3nc(-c4ccc(C5=CCC(C(=O)O)CC5)cc4)c(Cl)cc3[nH]2)CC1 (stereo not shown) [MSG012, 4′-(6-Chloro-2-(((1s,4s)-4-(dimethylcarbamoyl)-4-hydroxycyclohexyl)oxy)-1H-imidazo[4,5-b]pyridin-5-yl)-2,3,4,5-tetrahydro-[1,1′-biphenyl]-4-carboxylic acid]
greater potency for α2β2γ1 compared with α1β1γ1 [4]: ~100 fold

Max. fold activation [3]: 1.7 fold
EC50 [3]: 2010 nM
EC50 fold higher than previously determined by high-throughput fluorescence-based assays in solution ([6]; compared with refs 17, 18): 100–1000 fold
EC50 ([6]; immobilised GST-γ1AMPK, read-out: EC50 values for γ1AMPK activation): 2000 nM
SMILES: OCC1(c2ccc(-c3cc4nc(O[C@@H]5CO[C@H]6[C@@H]5OC[C@H]6O)[nH]c4cc3Cl)cc2)CC1 [PF-739, reference compound]

fold AMPK activation relative to vehicle [9]: 1.3 fold
fold AMPK activation relative to vehicle ([3]; 1 µM compound): > 2.3 fold
fold AMPK activation relative to vehicle [10]: > 2.3 fold
fold AMPK activation relative to vehicle [11]: > 2.3 fold
SMILES: Cc1ccc(Oc2nc3nc(-c4ccc(-c5ccccc5O)cc4)c(Cl)cc3[nH]2)cc1C(=O)O [SC4]
reduction of activating potency on loss of β1-Ser108 phosphorylation via exchange for Ala [7]: ~4 fold
EC50 ([8]; R2 for curve fit = 0.773): 28.6 nM
Max. fold activation [8]: 1.4 fold
EC50 [12]: 17.2 nM
Max. fold activation [12]: 2.5 fold
EC50 [13]: 5.1 nM
Max. fold activation [13]: 2.9 fold

SMILES: Cc1ccc(Oc2nc3cc(-c4ccc5c(ccn5C)c4)c(Cl)cc3[nH]2)cc1C(=O)O [compound 991]
reduction of activating potency on loss of β1-Ser108 phosphorylation via exchange for Ala [7]: 40 fold
